Data as given in the supplement of paper PMC11208160.

Test: recombinant UMI read abundance after kanamycin selection (control-corrected) (log10(CPM+1)); higher = more efficient recombination; extreme values may be limits of the assay; sequences stand for … in AGTGCAGAGAAAATCGGCCAGTTTTCTCTGCCTGCAGTCCGCATGCCGTGGGACCCCTTGGGTTCTAACCTGTTGCCTAGATTTATGCAGCGGACTGCCTTTCTCCCAAAGTGATAAACCGG…AGGTTGGTTTCACT; site = the 11-nt donor
How it was run: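 In Escherichia coli, a pool of donor and donor-binding-loop pairs, each with a 12-nt UMI, was tested for the IS621 bridge recombinase. Plating was on IPTG (0.07 mM) plus kanamycin, or without selection, in two replicates. Recombinant UMIs were amplified by PCR across the donor–target junction and sequenced, and counts were reported as log10(CPM+1) after averaging and control-derived scaling.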
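Note: IS621 bridge recombinase in Escherichia coli cells against a fixed T5 target plasmid.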

Sequence | recombinant UMI read abundance (log10)
CTCCAAGCATGGACCGGTTTTCCCGGTAATCCGTATTTGAG (site TTCCAAGCTCT) | 0.018
CTCCACACATGGACCGGTTTTCCCGGTAATCCGTATTTGAC (site CTCCACACTGT) | 2.47
CTCCACACATGGACCGGTTTTCCCGGTAATCCGTATTTGTA (site CACCACACTTA) | 1.47
CTCCACACATGGACCGGTTTTCCCGGTAATCCGTATTTGTA (site CCCCACACTTA) | 0.728
CTCCACACATGGACCGGTTTTCCCGGTAATCCGTATTTGTA (site CGCCACACTTA) | 0.289
CTCCACACATGGACCGGTTTTCCCGGTAATCCGTATTTGTA (site CTCCACACTTA) | 1.33
CTCCATACATGGACCGGTTTTCCCGGTAATCCGTATTTGAG (site CTCCATACTCT) | 1.27
CTCCATACATGGACCGGTTTTCCCGGTAATCCGTATTTGAG (site CTCCCTACTCT) | 0.0258
CTCCATACATGGACCGGTTTTCCCGGTAATCCGTATTTGAG (site CTCCGTACTCT) | 0.0224
CTCCATACATGGACCGGTTTTCCCGGTAATCCGTATTTGAG (site CTCCTTACTCT) | 0.0162
CTCCCTACATGGACCGGTTTTCCCGGTAATCCGTATTTGAA (site CTCCCTACTAT) | 0.112
CTCCCTACATGGACCGGTTTTCCCGGTAATCCGTATTTGAA (site CTCCCTACTCT) | 0.0285
CTCCCTACATGGACCGGTTTTCCCGGTAATCCGTATTTGAA (site CTCCCTACTGT) | 0
CTCCCTACATGGACCGGTTTTCCCGGTAATCCGTATTTGAA (site CTCCCTACTTT) | 0.46
CTCCCTACATGGACCGGTTTTCCCGGTAATCCGTATTTGAC (site CTCCCTACTAT) | 0.576
CTCCCTACATGGACCGGTTTTCCCGGTAATCCGTATTTGAC (site CTCCCTACTCT) | 0.293
CTCCCTACATGGACCGGTTTTCCCGGTAATCCGTATTTGAC (site CTCCCTACTGT) | 1.88
CTCCCTACATGGACCGGTTTTCCCGGTAATCCGTATTTGAC (site CTCCCTACTTT) | 0.415
CTCCCTACATGGACCGGTTTTCCCGGTAATCCGTATTTGAG (site ATCCCTACTCT) | 0.0141

Sequence | recombinant UMI read abundance (log10)
CTCCCTACATGGACCGGTTTTCCCGGTAATCCGTATTTGAG (site CACCCTACTCT) | 0.112
CTCCCTACATGGACCGGTTTTCCCGGTAATCCGTATTTGAG (site CCCCCTACTCT) | 0.0077
CTCCCTACATGGACCGGTTTTCCCGGTAATCCGTATTTGAG (site CGCCCTACTCT) | 0.0122
CTCCCTACATGGACCGGTTTTCCCGGTAATCCGTATTTGAG (site CTACCTACTCT) | 0.0126
CTCCCTACATGGACCGGTTTTCCCGGTAATCCGTATTTGAG (site CTCACTACTCT) | 0.0117
CTCCCTACATGGACCGGTTTTCCCGGTAATCCGTATTTGAG (site CTCCATACTCT) | 0.00249
CTCCCTACATGGACCGGTTTTCCCGGTAATCCGTATTTGAG (site CTCCCAACTCT) | 0.00701
CTCCCTACATGGACCGGTTTTCCCGGTAATCCGTATTTGAG (site CTCCCCACTCT) | 0.0165
CTCCCTACATGGACCGGTTTTCCCGGTAATCCGTATTTGAG (site CTCCCGACTCT) | 0.0234
CTCCCTACATGGACCGGTTTTCCCGGTAATCCGTATTTGAG (site CTCCCTACTAT) | 0.455
CTCCCTACATGGACCGGTTTTCCCGGTAATCCGTATTTGAG (site CTCCCTACTCA) | 0.0198
CTCCCTACATGGACCGGTTTTCCCGGTAATCCGTATTTGAG (site CTCCCTACTCC) | 0.0101
CTCCCTACATGGACCGGTTTTCCCGGTAATCCGTATTTGAG (site CTCCCTACTCG) | 0.00797
CTCCCTACATGGACCGGTTTTCCCGGTAATCCGTATTTGAG (site CTCCCTACTCT) | 0.248
CTCCCTACATGGACCGGTTTTCCCGGTAATCCGTATTTGAG (site CTCCCTACTGT) | 0
CTCCCTACATGGACCGGTTTTCCCGGTAATCCGTATTTGAG (site CTCCCTACTTT) | 0.0136
CTCCCTACATGGACCGGTTTTCCCGGTAATCCGTATTTGAG (site CTCCCTCCTCT) | 0.00493
CTCCCTACATGGACCGGTTTTCCCGGTAATCCGTATTTGAG (site CTCCCTGCTCT) | 0.0117
CTCCCTACATGGACCGGTTTTCCCGGTAATCCGTATTTGAG (site CTCCCTTCTCT) | 0.0166
